Experiment: pKa of oil formers by titration with tetrabutylammonium hydroxide
Format: physicochemical
Details: titration with TBAH in dimethyl sulfoxide/water (100:0.25)

tricresyl phosphate [TCP]
pKa of oil former: >20
